# Measurements from the supplement of paper PMC11451515.
# Test system: SEM cells
# Assay: cell viability relative to DMSO control; higher = less cytotoxic
# Settings: 48 h
# In short: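 Viability values are per-plate percentages of DMSO wells, with background from cell-free wells. Library compounds in DMSO were pin-dosed, in an 11-point threefold series from 47 μM to 0.79 nM, onto NOMO1 or SEM (500 cells/well) or P12-Ichikawa (1000 cells/well) leukemia cells in 1536-well plates (5 μl). Those cells had been adapted for at least four passages in each medium, and CellTiter-Glo One luminescence was read after 48 h at 37°C.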
# [1] = HPLM + 10% dialyzed FBS, 0.000781 µM
# [2] = HPLM + 10% dialyzed FBS, 0.00234 µM
# [3] = HPLM + 10% dialyzed FBS, 0.00702 µM
# [4] = HPLM + 10% dialyzed FBS, 0.0211 µM
# [5] = HPLM + 10% dialyzed FBS, 0.0632 µM
# [6] = HPLM + 10% dialyzed FBS, 0.19 µM
# [7] = HPLM + 10% dialyzed FBS, 0.569 µM
# [8] = HPLM + 10% dialyzed FBS, 1.71 µM
# [9] = HPLM + 10% dialyzed FBS, 5.12 µM
# [10] = HPLM + 10% dialyzed FBS, 15.4 µM
# [11] = HPLM + 10% dialyzed FBS, 46.1 µM
# [12] = RPMI 5 mM glucose + 10% FBS, 0.000781 µM
# [13] = RPMI 5 mM glucose + 10% FBS, 0.00234 µM
# [14] = RPMI 5 mM glucose + 10% FBS, 0.00702 µM
# [15] = RPMI 5 mM glucose + 10% FBS, 0.0211 µM
# [16] = RPMI 5 mM glucose + 10% FBS, 0.0632 µM
# [17] = RPMI 5 mM glucose + 10% FBS, 0.19 µM
# [18] = RPMI 5 mM glucose + 10% FBS, 0.569 µM
# [19] = RPMI 5 mM glucose + 10% FBS, 1.71 µM
# [20] = RPMI 5 mM glucose + 10% FBS, 5.12 µM
# [21] = RPMI 5 mM glucose + 10% FBS, 15.4 µM
# [22] = RPMI 5 mM glucose + 10% FBS, 46.1 µM
# [23] = RPMI 5 mM glucose + 10% dialyzed FBS, 0.000781 µM
# [24] = RPMI 5 mM glucose + 10% dialyzed FBS, 0.00234 µM
# [25] = RPMI 5 mM glucose + 10% dialyzed FBS, 0.00702 µM
# [26] = RPMI 5 mM glucose + 10% dialyzed FBS, 0.0211 µM
# [27] = RPMI 5 mM glucose + 10% dialyzed FBS, 0.0632 µM
# [28] = RPMI 5 mM glucose + 10% dialyzed FBS, 0.19 µM
# [29] = RPMI 5 mM glucose + 10% dialyzed FBS, 0.569 µM
# [30] = RPMI 5 mM glucose + 10% dialyzed FBS, 1.71 µM
# [31] = RPMI 5 mM glucose + 10% dialyzed FBS, 5.12 µM
# [32] = RPMI 5 mM glucose + 10% dialyzed FBS, 15.4 µM
# [33] = RPMI 5 mM glucose + 10% dialyzed FBS, 46.1 µM
SMILES,cell viability [1],cell viability [2],cell viability [3],cell viability [4],cell viability [5],cell viability [6],cell viability [7],cell viability [8],cell viability [9],cell viability [10],cell viability [11],cell viability [12],cell viability [13],cell viability [14],cell viability [15],cell viability [16],cell viability [17],cell viability [18],cell viability [19],cell viability [20],cell viability [21],cell viability [22],cell viability [23],cell viability [24],cell viability [25],cell viability [26],cell viability [27],cell viability [28],cell viability [29],cell viability [30],cell viability [31],cell viability [32],cell viability [33]
CNC(=O)C1=CC=C(C)C(=C1)N2C(=C/C(=C(/Br)C2=O)OCC3=C(F)C=C(F)C=C3)\C,109%,116%,123%,106%,126%,123%,131%,130%,125%,124%,120%,110%,127%,124%,122%,124%,116%,131%,139%,116%,113%,101%,115%,118%,136%,136%,134%,155%,148%,131%,109%,120%,103%
C1CCN2C[C@H]3C[C@H](\C=C/4CCCN[C@@H]34)[C@H]2C1,91.7%,108%,105%,107%,115%,115%,113%,108%,101%,123%,112%,95.2%,105%,89.2%,118%,103%,110%,102%,96%,95.7%,118%,120%,99.6%,102%,109%,127%,103%,117%,103%,104%,95.8%,122%,122%
CNC(=O)[C@H](CC/1=C/N=C\2/C=C\C\C=C12)NC(=O)[C@H](CC(C)C)CC(=O)NO,104%,103%,108%,111%,120%,104%,112%,118%,120%,105%,101%,111%,134%,122%,133%,117%,118%,116%,110%,132%,120%,114%,95%,99.2%,104%,100%,113%,88.9%,99.7%,102%,94.4%,102%,90.1%
Cc1nc(Nc2n[nH]c3c2CN(C(=O)N[C@H](CN(C)C)c2ccccc2)C3(C)C)c2sccc2n1,72.2%,70.6%,51.6%,66.4%,52.6%,48.5%,36.6%,23.8%,15.7%,2.46%,4.3%,91.2%,85.9%,62.8%,79.1%,60.3%,47%,46%,25.7%,15.2%,1.75%,3.09%,82.2%,73%,70.1%,82.1%,64.2%,55.1%,50%,30.4%,21.4%,2.4%,3.71%
Cc1ccc2c(c1)c1c(n2CCc2ccc(C)nc2)CCN(C)C1,110%,124%,120%,122%,133%,131%,117%,121%,135%,120%,106%,116%,117%,145%,147%,148%,155%,140%,127%,138%,134%,109%,–,–,–,–,–,–,–,–,–,–,–
COC1=CC=C2/C3=N/CCN3\C(=N/C2=C1OC)NC(=O)C4=CC=CN=C4,98.5%,98.2%,106%,96.8%,101%,104%,96.7%,103%,87.1%,82.5%,64.1%,91.6%,94.4%,99.7%,89.5%,99.5%,79.4%,85.2%,99.6%,76.6%,80.6%,55.7%,122%,111%,111%,103%,117%,113%,99%,92.9%,84%,81.1%,69.2%
Nc1ncnc2c1nc(Cl)n2[C@@H]1O[C@H](CO)[C@@H](O)[C@H]1O,118%,128%,123%,125%,119%,128%,115%,128%,97.3%,41.6%,7.3%,120%,130%,123%,135%,136%,135%,119%,130%,109%,55%,8.37%,–,–,–,–,–,–,–,–,–,–,–
CNC(=O)CN1CCC(Oc2cc3c(Nc4cccc(Cl)c4F)ncnc3cc2OC)CC1,104%,110%,110%,135%,112%,122%,128%,130%,121%,129%,104%,117%,128%,116%,118%,120%,130%,130%,124%,125%,122%,84.9%,114%,113%,120%,141%,138%,152%,140%,149%,125%,138%,88.8%
